Test results published in patent US10085950B2, “Pharmaceutical composition for cancer treatment containing gossypol and phenformin as active ingredients” (NATIONAL CANCER CENTER, priority 2014, dated 2018).

Assays:
Assay type in all cases: cell-based
[1] = tested on: non-small cell lung cancer (NSCLC) cell lines (A549, H460, Hop-92, H23); experiment: ATP level measurement with ATP assay kit after gossypol treatment; conditions: 1 μM gossypol for 1 hour; FIG. 1
Procedure: To examine whether energy generation in cancer cells was inhibited by gossypol, which is […], non-small cell lung cancer (NSCLC) cell lines, for example, an A549 cell line, an H460 cell line, an Hop-92 cell line and an H23 cell line, were treated with 1 μM gossypol for 1 hour, followed by measuring ATP levels using an ATP assay kit (Biovision; #K354-100). As a control, normal lung epithelial cells were used.

[2] = tested on: A549 cell line; experiment: ATP level measurement according to gossypol concentration; conditions: 0, 0.1 or 1 μM gossypol for 1 hour; FIG. 2
Procedure: Also, to investigate a change of ATP levels according to the concentration of gossypol, an A549 cell line was treated with 0, 0.1 or 1 μM gossypol for 1 hour, followed by measuring ATP levels.

[3] = tested on: lung cancer cell lines (A549/ATCC, HOP-62, HOP-92, NCI-H23, NCI-H460, NCI-H522); experiment: SRB analysis of growth inhibition of lung cancer cell lines; conditions: 48 hours incubation, single treatment, FIG. 3, read-out: GI50 concentration (50% growth inhibition)
Procedure: (§1) An SRB analysis was performed to examine the effect of gossypol on inhibiting the growth of cancer cell lines. Specifically, according to the doubling time of lung cancer cell lines, for example, A549/ATCC, HOP-62, HOP-92, NCI-H23, NCI-H460 or NCI-H522 cell lines, 5000 to 40000 cells were seeded per well and grown in a 96-well microtiter plate. After 24 hours, the cells were treated with […] of 0, 0.1, 1, 10 or 100 μM gossypol per well, and incubated at 37° C. for 48 hours. Subsequently, […] of 50% cold (4° C.) trichloroacetic acid (TCA) was added to each of the attached cell lines, and […] of 80% TCA was added to each of the suspended cell lines to fix the cells. Following the incubation of the plate at 4° C. for 1 to 3 hours, the TCA solution in the plate was discarded, and then the plate was rinsed with distilled water five times. The plate was dried at room temperature for approximately 12 to 24 hours, and then fixed cells were stained with […] of sulforhodamine B (SRB) at room temperature for 5 minutes. After staining, the plate was washed with 1% glacial acetic acid three times, and dried at room temperature for approximately 12 to 24 hours. The SRB dye was dissolved with 10 mM Trizma base, and an optical density was measured at 515 nm. The effect of gossypol on inhibiting cancer cells was represented as 50% growth inhibition (GI50).

[4] = tested on: AMP-activated protein kinase (AMPK) phosphorylation in A549 lung cancer cell lines; experiment: AMPK phosphorylation by western blotting; conditions: 1 μM for 0, 8, 16 or 24 hours; 0, 0.1, 0.5 or 1 μM for 24 hours; FIG. 4
Procedure: To examine the anticancer effect according to the treatment time or concentration of gossypol, A549 lung cancer cell lines were treated with 1 μM gossypol for 0, 8, 16 or 24 hours, and then the phosphorylation of an AMP-activated protein kinase (AMPK), which is a critical protein for cancer cell division, was analyzed by western blotting.
Also, after the individual treatment of 0, 0.1, 0.5 or 1 μM gossypol for 24 hours, AMPK phosphorylation was also analyzed by western blotting.

[5] = tested on: cancer cell lines A549/ATCC and NCI-H460; experiment: SRB analysis of single and combination treatment; conditions: 0.1-50 μM gossypol alone; FIGS. 5 and 6
Procedure: as §1, with “(GI50). […]” for “(GI50).”

Cc1cc2c(C(C)C)c(O)c(O)c(C=O)c2c(O)c1-c1c(C)cc2c(C(C)C)c(O)c(O)c(C=O)c2c1O [gossypol]
levels of ATP production [1]: inhibited | inhibition of the ATP production, concentration dependence [2]: dependent on the concentration of gossypol | GI50 [3]: 5 µM | AMPK phosphorylation [4]: increased depending on the treatment time and concentration | growth of the cancer cells, single treatment [5]: hardly inhibited
